Measured values from patent publication US20140141459A1, “PENTRAXIN 3 ASSOCIATION WITH ASTHMA” (THE REGENTS OF THE UNIVERSITY OF MICHIGAN, priority 2011, published 2014).

How the values were obtained:
[1] = tested on: A. fumigatus-induced asthma model; experiment: Bronchial hyper-responsiveness (Buxco plethysmograph, methacholine) in A. fumigatus-induced asthma model; format: in vivo, mice; settings: vs PBS
Description: (§1) C57BL/6 mice were sensitized via intraperitoneal (i.p.) and subcutaneous (s.c.) route with a commercially available preparation of soluble A. fumigatus antigens dissolved in 0.2 ml of IFA. After three intranasal instillations of Aspergillus antigen, each spaced one-week apart, each mouse received 1×10^7 swollen conidia suspended in 30 μl of PBS tween 80 (0.1%; vol/vol) via intratracheal (i.t.) administration. All mice were euthanized with an overdose of Nembutal and lung homogenates were collected immediately following euthanization. Mouse PTX3 ELISA was completed on lung homogenate supernatant.
(§2) A. fumigatus-Induced Asthma Model was Established as Described in Example 1.
(§3) Mice were treated every other day from day 0 to 15 or from day 15 to 30 with PBS or human PTX3 (R&D System, Minneapolis, Minn., USA; 10 μg/injection). At days 15 and 30 after conidia challenge, bronchial hyper-responsiveness was assessed in a Buxco™ plethysmograph (Buxco, Troy, N.Y.) after intravenous methacholine injection (420 μg/Kg). Other parameters were determined after the assessment of airway hyper-responsiveness.

[2] = tested on: A. fumigatus-induced asthma model; experiment: Cytokine levels in whole lung homogenate in A. fumigatus-induced asthma model; format: in vivo, mice; settings: day 30 after conidia challenge
Description: as §1, §2, §3
To investigate whether the treatment with exogenous PTX3 modified the cytokine profile in asthma, the levels of different cytokines in whole lungs homogenate from PBS and PTX3-treated mice at day 30 after conidia challenge were measured.

PTX3: human PTX3 (pentraxin 3) polypeptide from R&D System, administered to mice at 10 μg/injection
airway resistance at day 15 after conidia ([1]; treated every other day from day 0 to 15, 10 μg/injection): significantly increased | airway resistance at day 30 after conidia ([1]; treated every other day from day 15 to 30, 10 μg/injection): significantly decreased | increase in IL-4 ([2]; vs PBS treatment): 1.8 fold | increase in IL-10 ([2]; vs PBS treatment): 1.8 fold | increase in IL-17 ([2]; vs PBS treatment): 3.7 fold | reduction in IFN-γ ([2]; vs PBS treatment): 1.8 fold | IL-18 levels ([2]; vs control group): significantly increased | increase in CCL22 (MDC) levels ([2]; vs control group): 1.7 fold | increase in IL-1α levels ([2]; vs control group): 1.7 fold | increase in IL-1β levels ([2]; vs control group): 1.7 fold
